Assays:
Sagittaria pygmaea, L. [1] = experiment: Preemergence weed control under flooded paddy conditions, SAGPY (Arrowhead (Pygmaea)); format: in vivo; settings: preemergence, flooded paddy; also: meaning of each grade not given here
Cyperus iria [2] = experiment: Preemergence weed control under flooded paddy conditions, CYPIR (Rice Flatsedge); format: in vivo; settings: preemergence, flooded paddy; also: meaning of each grade not given here
Cyperus iria [3] = experiment: Postemergence weed control under flooded paddy conditions, CYPIR (Rice Flatsedge); format: in vivo; settings: rated three to four weeks after treatment
[4] = test system: Monochoria vaginalis, Presl.; experiment: Preemergence weed control under flooded paddy conditions, MOOVA (Monochoria); format: in vivo; settings: preemergence, flooded paddy; also: meaning of each grade not given here
[5] = test system: Echinochloa oryzoides (Ard.) Fritsch.; experiment: Postemergence weed control under flooded paddy conditions, ECHORC (Watergrass (Calif.)); format: in vivo; settings: rated three to four weeks after treatment
[6] = test system: Cyperus serotinus, Rottb.; experiment: Postemergence weed control under flooded paddy conditions, CYPSE (Flatsedge); format: in vivo; settings: rated three to four weeks after treatment
[7] = test system: Monochoria vaginalis, Presl.; experiment: Postemergence weed control under flooded paddy conditions, MOOVA (Monochoria); format: in vivo; settings: rated three to four weeks after treatment
[8] = test system: Echinochloa oryzoides (Ard.) Fritsch.; experiment: Preemergence weed control under flooded paddy conditions, ECHORC (Watergrass (Calif.)); format: in vivo; settings: preemergence, flooded paddy; also: meaning of each grade not given here
[9] = test system: Cyperus serotinus, Rottb.; experiment: Preemergence weed control under flooded paddy conditions, CYPSE (Flatsedge); format: in vivo; settings: preemergence; also: meaning of each grade not given here
[10] = test system: Oryza sativa, (L.) Tebonnet; experiment: Rice tolerance to post-transplant applications under flooded paddy conditions (Example 188), ORYSAT (Rice, Tebonnet); settings: rated three to four weeks after treatment
Sagittaria pygmaea, L. [11] = experiment: Postemergence weed control under flooded paddy conditions, SAGPY (Arrowhead (Pygmaea)); format: in vivo; settings: rated three to four weeks after treatment
[12] = test system: Oryza sativa, (L.) Tebonnet; experiment: Rice tolerance to post-transplant applications under flooded paddy conditions (Example 187), ORYSAT (Rice, Tebonnet); also: meaning of each grade not given here
[13] = Rate 0.0320 kg/ha, rated three to four weeks after treatment
[14] = Rate 0.0620 kg/ha, rated three to four weeks after treatment
[15] = Rate 0.1250 kg/ha, rated three to four weeks after treatment
[16] = Rate 0.2500 kg/ha, rated three to four weeks after treatment
[17] = Rate 0.5000 kg/ha, rated three to four weeks after treatment
[18] = Rate 0.0320 kg/ha, rated 3-4 weeks after treatment
[19] = Rate 0.0620 kg/ha, rated 3-4 weeks after treatment
[20] = Rate 0.1250 kg/ha, rated 3-4 weeks after treatment
[21] = Rate 0.2500 kg/ha, rated 3-4 weeks after treatment

CC(C)S(=O)(=O)NC(=O)c1nsc2ccc(-n3c(=O)cc(C(F)(F)F)n(C)c3=O)cc12 [Example 362, 1,2-Benzisothiazole-3-carboxamide, 5-[3,6-dihydro-3-methyl-2,6-dioxo-4-(trifluoromethyl)-1(2H)-pyrimidinyl]-N-(isopropylsulfonyl)-]
2.0: herbicidal effect rating, ECHORC ([5]; Rate 0.0620 kg/ha)
5.0: herbicidal effect rating, CYPIR (Cyperus iria [2]; [14]) | herbicidal effect rating, CYPIR (Cyperus iria [2]; [15])
6.0: herbicidal effect rating, CYPSE [9, 13] | herbicidal effect rating, ORYSAT (rice tolerance) ([10]; Rate 0.2500 kg/ha) | herbicidal effect rating ORYSAT [12, 16]
0.0: herbicidal effect rating, ECHORC ([5]; Rate 0.0320 kg/ha) | herbicidal effect rating, CYPSE ([6]; Rate 0.0320 kg/ha) | herbicidal effect rating, SAGPY (Sagittaria pygmaea, L. [11]; Rate 0.0320 kg/ha) | herbicidal effect rating, SAGPY (Sagittaria pygmaea, L. [11]; Rate 0.0620 kg/ha)
4.0: herbicidal effect rating, CYPIR (Cyperus iria [3]; Rate 0.0320 kg/ha) | herbicidal effect rating, CYPIR (Cyperus iria [3]; Rate 0.2500 kg/ha) | herbicidal effect rating, ECHORC [8, 13] | herbicidal effect rating, SAGPY (Sagittaria pygmaea, L. [11]; Rate 0.1250 kg/ha) | herbicidal effect rating ORYSAT [12, 13] | herbicidal effect rating ORYSAT [12, 14] | herbicidal effect rating ORYSAT [12, 15]
8.0: herbicidal effect rating, CYPIR (Cyperus iria [3]; Rate 0.1250 kg/ha) | herbicidal effect rating, SAGPY (Sagittaria pygmaea, L. [11]; Rate 0.2500 kg/ha) | herbicidal effect rating ORYSAT [12, 17]
9.0: herbicidal effect rating, SAGPY (Sagittaria pygmaea, L. [1]; [13]) | herbicidal effect rating, SAGPY (Sagittaria pygmaea, L. [1]; [14]) | herbicidal effect rating, SAGPY (Sagittaria pygmaea, L. [1]; [15]) | herbicidal effect rating, SAGPY (Sagittaria pygmaea, L. [1]; [16]) | herbicidal effect rating, SAGPY (Sagittaria pygmaea, L. [1]; [17]) | herbicidal effect rating, CYPIR (Cyperus iria [2]; [17]) | herbicidal effect rating, MOOVA [4, 13] | herbicidal effect rating, MOOVA [4, 14] | herbicidal effect rating, MOOVA [4, 15] | herbicidal effect rating, MOOVA [4, 16] | herbicidal effect rating, MOOVA [4, 17] | herbicidal effect rating, ECHORC ([5]; Rate 0.2500 kg/ha) | herbicidal effect rating, CYPSE ([6]; Rate 0.0620 kg/ha) | herbicidal effect rating, CYPSE ([6]; Rate 0.1250 kg/ha) | herbicidal effect rating, CYPSE ([6]; Rate 0.2500 kg/ha) | herbicidal effect rating, MOOVA ([7]; Rate 0.0320 kg/ha) | herbicidal effect rating, MOOVA ([7]; Rate 0.0620 kg/ha) | herbicidal effect rating, MOOVA ([7]; Rate 0.1250 kg/ha) | herbicidal effect rating, MOOVA ([7]; Rate 0.2500 kg/ha) | herbicidal effect rating, ECHORC [8, 16] | herbicidal effect rating, ECHORC [8, 17] | herbicidal effect rating, CYPSE [9, 14] | herbicidal effect rating, CYPSE [9, 15] | herbicidal effect rating, CYPSE [9, 16] | herbicidal effect rating, CYPSE [9, 17]
3.0: herbicidal effect rating, CYPIR (Cyperus iria [2]; [13]) | herbicidal effect rating, ORYSAT (rice tolerance) ([10]; Rate 0.0320 kg/ha) | herbicidal effect rating, ORYSAT (rice tolerance) ([10]; Rate 0.0620 kg/ha) | herbicidal effect rating, ORYSAT (rice tolerance) ([10]; Rate 0.1250 kg/ha)
7.0: herbicidal effect rating, CYPIR (Cyperus iria [2]; [16]) | herbicidal effect rating, CYPIR (Cyperus iria [3]; Rate 0.0620 kg/ha) | herbicidal effect rating, ECHORC ([5]; Rate 0.1250 kg/ha) | herbicidal effect rating, ECHORC [8, 14] | herbicidal effect rating, ECHORC [8, 15]

C#CCOC(=O)C(C)(C)Oc1ccc(C)cc1-c1nsc2ccc(-n3c(=O)cc(C(F)(F)F)n(C)c3=O)cc12 [Example 528, Propionic acid, 2-{{2-{5-[3,6-dihydro-3-methyl-2,6-dioxo-4-(trifluoromethyl)-1(2H)-pyrimidinyl]-1,2-benzisothiazol-3-yl}-p-tolyl}oxy}-2-methyl-, 2-propynyl ester]
3.0: herbicidal effect rating, SAGPY (Sagittaria pygmaea, L. [1]; [21]) | herbicidal effect rating, ORYSAT (rice tolerance) ([10]; Rate 0.2500 kg/ha) | herbicidal effect rating, SAGPY (Sagittaria pygmaea, L. [11]; Rate 0.2500 kg/ha)
6.0: herbicidal effect rating, CYPIR (Cyperus iria [3]; Rate 0.0320 kg/ha) | herbicidal effect rating, CYPIR (Cyperus iria [3]; Rate 0.0620 kg/ha) | herbicidal effect rating, CYPIR (Cyperus iria [3]; Rate 0.1250 kg/ha) | herbicidal effect rating, CYPIR (Cyperus iria [3]; Rate 0.2500 kg/ha)
7.0: herbicidal effect rating, ECHORC ([5]; Rate 0.0620 kg/ha) | herbicidal effect rating ORYSAT [12, 20]
2.0: herbicidal effect rating, ORYSAT (rice tolerance) ([10]; Rate 0.1250 kg/ha)
0.0: herbicidal effect rating, SAGPY (Sagittaria pygmaea, L. [1]; [19]) | herbicidal effect rating, ECHORC ([5]; Rate 0.0320 kg/ha) | herbicidal effect rating, CYPSE ([6]; Rate 0.0320 kg/ha) | herbicidal effect rating, CYPSE ([6]; Rate 0.0620 kg/ha) | herbicidal effect rating, CYPSE ([6]; Rate 0.1250 kg/ha) | herbicidal effect rating, MOOVA ([7]; Rate 0.0320 kg/ha) | herbicidal effect rating, MOOVA ([7]; Rate 0.0620 kg/ha) | herbicidal effect rating, CYPSE [9, 18] | herbicidal effect rating, CYPSE [9, 19] | herbicidal effect rating, CYPSE [9, 20] | herbicidal effect rating, CYPSE [9, 21] | herbicidal effect rating, ORYSAT (rice tolerance) ([10]; Rate 0.0320 kg/ha) | herbicidal effect rating, ORYSAT (rice tolerance) ([10]; Rate 0.0620 kg/ha) | herbicidal effect rating, SAGPY (Sagittaria pygmaea, L. [11]; Rate 0.0320 kg/ha) | herbicidal effect rating, SAGPY (Sagittaria pygmaea, L. [11]; Rate 0.0620 kg/ha) | herbicidal effect rating, SAGPY (Sagittaria pygmaea, L. [11]; Rate 0.1250 kg/ha)
1.5: herbicidal effect rating, SAGPY (Sagittaria pygmaea, L. [1]; [20]) | herbicidal effect rating ORYSAT [12, 18]
5.0: herbicidal effect rating, CYPIR (Cyperus iria [2]; [19]) | herbicidal effect rating, CYPIR (Cyperus iria [2]; [20])
4.5: herbicidal effect rating, CYPIR (Cyperus iria [2]; [18])
3.5: herbicidal effect rating ORYSAT [12, 19]
9.0: herbicidal effect rating, CYPIR (Cyperus iria [2]; [21]) | herbicidal effect rating, MOOVA [4, 18] | herbicidal effect rating, MOOVA [4, 19] | herbicidal effect rating, MOOVA [4, 20] | herbicidal effect rating, MOOVA [4, 21] | herbicidal effect rating, ECHORC ([5]; Rate 0.1250 kg/ha) | herbicidal effect rating, ECHORC ([5]; Rate 0.2500 kg/ha) | herbicidal effect rating, CYPSE ([6]; Rate 0.2500 kg/ha) | herbicidal effect rating, MOOVA ([7]; Rate 0.1250 kg/ha) | herbicidal effect rating, MOOVA ([7]; Rate 0.2500 kg/ha) | herbicidal effect rating, ECHORC [8, 18] | herbicidal effect rating, ECHORC [8, 19] | herbicidal effect rating, ECHORC [8, 20] | herbicidal effect rating, ECHORC [8, 21] | herbicidal effect rating ORYSAT [12, 21]
1.0: herbicidal effect rating, SAGPY (Sagittaria pygmaea, L. [1]; [18])

Source: patent EP0908457B1, “3-(1,2-benzisothiazol- and isoxazol-5-Y1)-2,4(1H,3H)-pyrimidinedione or thione and 3-(1,2-benzisothiazol- and isoxazol-5-y1)-4(3H)-pyrimidinone or thione herbicidal agents” (BASF AKTIENGESELLSCHAFT, priority 1997, dated 1999)
